Values of other authors in publication PMC4315033, “The regulation of muscle mass by endogenous glucocorticoids” (Frontiers in Physiology, 2015).

Tests used:
muscle explants = test system: muscle explants; design: method as in Tiao et al., 1996; settings: juvenile rats, explants harvested 16 h after CLP; ref Tiao et al., 1996
MAFbx and MuRF1 = test system: MAFbx and MuRF1; design: method as in Frost et al., 2007; settings: adult rats, ref Frost et al., 2007
MAFbx, MuRF1, and Foxo1 = test system: MAFbx, MuRF1, and Foxo1; design: method as in Braun et al., 2011; settings: inflammatory cytokines delivered directly into the brain; ref Braun et al., 2011
muscle wasting = test system: muscle wasting; design: method as in Song et al., 2005; settings: angiotensin II infused at concentrations mimicking endogenous production in CKD, co-administration; ref Song et al., 2005
muscle protein breakdown = test system: muscle protein breakdown; design: method as in Zamir et al., 1992; settings: ref Zamir et al., 1992
cultured myotubes [1] = test system: cultured myotubes; design: method as in Biedasek et al., 2011; settings: ref Biedasek et al., 2011
[2] = test system: mineralocorticoid receptor; design: method as in Chapman et al., 2013; settings: ref Chapman et al., 2013
miR27a and b = test system: miR27a and b; design: method as in Allen and Loh, 2011; settings: ref Allen and Loh, 2011
cultured myotubes [3] = test system: cultured myotubes; design: method as in Lokireddy et al., 2012; settings: ref Lokireddy et al., 2012
TRAF6 = test system: TRAF6; design: method as in Sun et al., 2014; settings: pharmacologic doses; ref Sun et al., 2014
GR^dim mice = test system: GR^dim mice; design: method as in Reichardt et al., 1998; Tuckermann et al., 1999; settings: ref Reichardt et al., 1998, Tuckermann et al., 1999
muscle atrophy = test system: muscle atrophy; design: method as in Hu et al., 2009; settings: ref Hu et al., 2009

In the case of `CC#C[C@]1(O)CC[C@H]2[C@@H]3CCC4=CC(=O)CCC4=C3[C@@H](c3ccc(N(C)C)cc3)C[C@@]21C` [mifepristone], the “tyrosine release from muscle explants” value (muscle explants) is listed as “significantly reduced”, the “induction of MAFbx and MuRF1 in septic rats” value (MAFbx and MuRF1; CLP, 24 h) is listed as “failed to alter” and the “induction of MAFbx and MuRF1 by dexamethasone” value (MAFbx and MuRF1; similar time point) is listed as “effectively blocking”. For the same compound, the “half-life (in words)” value (in vivo) was “very short”, the half-life (rodents, ref Heikinheimo et al., 1994) was 1 to 2 h and the “induction of MAFbx, MuRF1, and Foxo1 in muscle” value (MAFbx, MuRF1, and Foxo1) was “blocked”. The “angiotensin II induced muscle wasting” value (muscle wasting) was “reversed”, the “activity at other steroid receptors” value (other steroid receptors) was “has activity” and the mortality (muscle protein breakdown; concurrent cytokine and mifepristone administration) was ~50%. For the same compound, the “induction of muscle protein degradation brought about by tumor necrosis factor (TNF)” value (muscle protein breakdown; concurrent mifepristone) was “attenuates” and the “proteolysis accompanied by interleukin-1 α administration” value (muscle protein breakdown; concurrent mifepristone) was “not blocked”.

For `C[C@]12CCC(=O)C=C1CC[C@@H]1[C@@H]2C(=O)C[C@@]2(C)[C@H]1CC[C@]2(O)C(=O)CO` [cortisone], the “proteolysis and atrophy in cultured myotubes” value (cultured myotubes [1]) is given as “capable of inducing” and the “binding to the GR” value (GR) is given as “does not bind”.

For `C[C@]12CCC(=O)C=C1CC[C@@H]1[C@@H]2[C@@H](O)C[C@@]2(C)[C@H]1CC[C@]2(O)C(=O)CO` [Cortisol], the “affinity for mineralocorticoid receptor relative to GR” value [2] is listed as “higher affinity”.

For `C[C@@H]1C[C@H]2[C@@H]3CCC4=CC(=O)C=C[C@]4(C)[C@@]3(F)[C@@H](O)C[C@]2(C)[C@@]1(O)C(=O)CO` [dexamethasone], the “levels of miR27a and b in skeletal muscle” value (miR27a and b) is given as “decrease”, the Mul1 expression (cultured myotubes [3]) is given as “induces” and the mitophagy (cultured myotubes [3]) is given as “induces”. For the same compound, the TRAF6 expression (TRAF6) was “increase”, the PMA-induced skin inflammation (GR^dim mice) was “continued to suppress” and the “expression of genes regulating carbohydrate balance” value (GR^dim mice) was “failed to alter”. For the same compound, the “muscle atrophy, given in isolation” value (muscle atrophy; dose estimated to mimic endogenous concentrations in diabetic animals) was “insufficient to evoke substantial atrophy” and the “muscle atrophy in diabetic adrenalectomized mice” value (muscle atrophy; same dose, streptozotocin-induced diabetes) was “restores normal muscle atrophy”.
